Columns and labels:
Type in all cases: in vivo, human
[1] = system: patients with major depressive disorder; experiment: Sexual Functioning Inventory (SFI) in placebo- and paroxetine-controlled MDD trial; design: scale not given here; conditions: LOCF
Source text: (§1) A sequential parallel comparison design (SPCD) is utilized. […] The study is 12 weeks in duration, with two 6-week phases. The primary outcome measure is change on the Montgomery Asberg Depression Rating Scale (MADRS). Secondary outcomes include Hamilton Rating Scale for Depression (HAM-D), Clinical Global Impression of Improvement (CGI-I), Sexual Functioning Inventory (SFI), Clinical Global Impression (Improvement and Severity versions), and the Massachusetts General Hospital (MGH) Cognitive and Physical Functioning Questionnaire (MGH-CPFQ). Male and female patients, between the ages of 18-65, are eligible who had MDD, based on the Structured Clinical Interview for DSM Disorders (SCID) interview, and validated by remote raters, a history of non-response to an adequate trial of an antidepressant during the current episode of MDD (an adequate dose for >8 weeks), and a HAM-D-17 score of >18 at screening.
(§2) In addition to standard inclusion criteria the trial requires: 1) diagnosis of MDD, based on the Structured Clinical Interview for DSM Disorders Clinical Trials version (SCID-CT), validated by remote independent raters using the SAFER criteria interview, 2) one and only one antidepressant therapy (ADT) failure in the current episode of MDD, treated with an adequate dose of one of an allowed standard antidepressant (paroxetine or an monoamine oxidase inhibitor (MAOI) not allowed) during the current episode for >6 weeks, with the same, adequate dose for >4 weeks, 3) HAM-D17≧18 at the end of screening phase, 4)<25% reduction in Quick Inventory of Depressive Symptoms Self-Rated (QIDS-SR) score between the screen and baseline visits. Inadequate response: defined as <50% reduction in depressive symptom severity, assessed by the MGH Antidepressant Treatment Response Questionnaire (ATRQ) administered by remote, independent raters (Targum, S. et al., CNS Neuroscience & Therapeutics, 2010, 16 (5), 322-325). An adequate trial is defined as an ADT>6 weeks at least at the minimum dose specified in the MGH ATRQ.
The SCID-CT is administered by study clinicians at the screening visit to diagnose Axis I disorders. The remote, independent raters also administer the SAFER Criteria Inventory (SCI) during the screening phase to assess whether the MDD is a “valid” clinical entity.
The primary efficacy assessment is the MADRS, administered at every study visit and clinicians complete it by using a structured interview guide developed by Massachusetts General Hospital (MGH). The primary tolerability assessment is the change in the SFI, completed by the patient at every study visit. The MGH-CPFQ, a brief self-report inventory to assess rates of significant cognitive symptoms, sleepiness and fatigue, is filled out by patients at every visit. The Columbia-Suicide Severity Rating Scale (C-SSRS) (Posner K. et al., American Journal of Psychiatry, 2011, 168 (12)1266-77) is administered at every visit. Vital signs are recorded at each visit; physical exam is performed at screen and week 12 (or early termination). Laboratory tests are obtained at screen, baseline, and weeks 2, 4, 6, 8, 10, 12 (or early termination). Twelve-lead ECGs are obtained at screen, baseline, and weeks 3, 6, 9, 12 (or early termination). Consumptive habits (smoking, alcohol, and caffeinated beverages) are recorded at every visit. Adverse events and concomitant medications are collected at every visit.

[2] = system: patients with major depressive disorder; experiment: Montgomery Asberg Depression Rating Scale (MADRS) in MDD trial
Source text: (§3) A multicenter, randomized, double blind, placebo- and paroxetine-controlled trial of amitifadine for major depressive disorder (MDD) non-responsive to an adequate trial of an antidepressant therapy in the current depressive episode. A sequential parallel comparison design (SPCD) is utilized. […] The study is 12 weeks in duration, with two 6-week phases. The primary outcome measure is change on the Montgomery Asberg Depression Rating Scale (MADRS). Secondary outcomes include Hamilton Rating Scale for Depression (HAM-D), Clinical Global Impression of Improvement (CGI-I), Sexual Functioning Inventory (SFI), Clinical Global Impression (Improvement and Severity versions), and the Massachusetts General Hospital (MGH) Cognitive and Physical Functioning Questionnaire (MGH-CPFQ). […]
as §2, with “An adequate trial is defined as an ADT>6 weeks at least at the minimum dose specified in the MGH ATRQ.” left out
The primary efficacy assessment is the MADRS, administered at every study visit and clinicians complete it by using a structured interview guide developed by Massachusetts General Hospital (MGH). […] Vital signs are recorded at each visit; physical exam is performed at screen and week 12 (or early termination). […]

[3] = system: patients with major depressive disorder; experiment: Clinical Global Impression of Improvement (CGI-I) in MDD trial; conditions: amitifadine 50 mg or 100 mg; paroxetine 40 mg at both 6 and 12 weeks
Source text: as §1, with “A multicenter, randomized, double blind, placebo- and paroxetine-controlled trial of amitifadine for major depressive disorder (MDD) non-responsive to an adequate trial of an antidepressant therapy in the current depressive episode. A sequential” for “A sequential”, “at screening. […]” for “at screening.”

[4] = system: patients with major depressive disorder; experiment: Vital signs (heart rate, blood pressure) in MDD trial; conditions: amitifadine 50 mg and 100 mg
Source text: as §3
The primary efficacy assessment is the MADRS, administered at every study visit and clinicians complete it by using a structured interview guide developed by Massachusetts General Hospital (MGH). […] Vital signs are recorded at each visit; physical exam is performed at screen and week 12 (or early termination). […] Consumptive habits (smoking, alcohol, and caffeinated beverages) are recorded at every visit. […]

[5] = system: patients with major depressive disorder; experiment: Sexual Functioning Inventory (SFI) in placebo- and paroxetine-controlled MDD trial; design: Mean Change from Baseline SFI, Item 3 / Mean Change from Baseline SFI, Item 4 / Mean Change from Baseline SFI, Item 5 / Mean Change from Baseline SFI Total / Mean Change from Baseline SFI, Item 1 / Mean Change from Baseline SFI, Item 2: scale not given here; conditions: amitifadine 100 mg
[6] = both genders, amitifadine 100 mg vs paroxetine 40 mg
[7] = female, amitifadine 100 mg, compare vs placebo
[8] = LOCF, female, compare vs placebo

Fc1ccc([C@@H]2CCNC[C@H]2COc2ccc3c(c2)OCO3)cc1 [Paroxetine, reference compound]
Mean Change from Baseline SFI Total [1, 6]: −1.52 | Mean Change from Baseline SFI, Item 1 [1, 6]: −0.57 | Mean Change from Baseline SFI, Item 2 [1, 6]: −0.45 | Mean Change from Baseline SFI, Item 3 [1, 6]: −0.27 | Mean Change from Baseline SFI, Item 4 [1, 6]: −0.13 | Mean Change from Baseline SFI, Item 5 [1, 6]: −0.23 | improvement compared to both placebo and amitifadine 50 mg ([2]; exploratory analyses, paroxetine 40 mg): significantly better improvement | CGI-Improvement compared to placebo [3]: significant difference

Clc1ccc([C@]23CNC[C@H]2C3)cc1Cl [Amitifadine]
Mean Change from Baseline SFI Total [1, 6]: −3.86 | Mean Change from Baseline SFI, Item 1 [1, 6]: −1.02 | Mean Change from Baseline SFI, Item 2 [1, 6]: −1.00 | Mean Change from Baseline SFI, Item 3 [1, 6]: −0.80 | Mean Change from Baseline SFI, Item 4 [1, 6]: −0.79 | Mean Change from Baseline SFI, Item 5 [1, 6]: −1.00 | Mean Change from Baseline SFI, Item 2 [1, 7]: −1.12 | Mean Change from Baseline SFI, Item 5 [1, 7]: −1.09 | difference between paroxetine and amitifadine 100 mg in improvement ([2]; exploratory analyses): non-significant | MADRS change from baseline compared to placebo ([2]; primary analysis, amitifadine 50 mg or 100 mg, paroxetine 40 mg): no significant difference | CGI-Improvement compared to placebo [3]: no significant differences | changes in heart rate or blood pressure [4]: Neither dose is associated with significant changes | Mean Change from Baseline SFI Total [5, 8]: −4.41 | Mean Change from Baseline SFI, Item 1 [5, 8]: −1.16 | Mean Change from Baseline SFI, Item 3 [5, 8]: −0.97 | Mean Change from Baseline SFI Total ([5]; LOCF, male, compare vs placebo): −3.12 | Mean Change from Baseline SFI, Item 1 ([5]; LOCF, male, compare vs placebo): −0.83 | Mean Change from Baseline SFI, Item 2 ([5]; LOCF, male, compare vs placebo): −0.83 | Mean Change from Baseline SFI, Item 3 ([5]; LOCF, male, compare vs placebo): −0.58 | Mean Change from Baseline SFI, Item 4 ([5]; LOCF, male, compare vs placebo): −0.79 | Mean Change from Baseline SFI, Item 5 ([5]; LOCF, male, compare vs placebo): −0.88 | individual items of the SFI (anorgasmia, arousal, overall satisfaction) versus paroxetine ([5]; most individual items): significantly less impairing | SFI change from baseline compared with placebo in women ([5]; post-hoc analyses by gender, women): significant improvement

Reference: US20160279098A1, “NOVEL METHODS” (EUTHYMICS BIOSCIENCE, INC., priority 2013, published 2016)
